From US8859541B2, “6-alkynylpyridines” (Boehringer Ingelheim International GmbH, priority 2012, dated 2014) come the findings set out here.

The structures appear in SMILES notation. pIC50: −log10 of the molar value.

The target of the experiment is T1, XIAP BIR3 (Homo sapiens, UniProt P98170).
T1 construct: covering amino acids 241 to 356; XIAP BIR3; made in house; host or cells: E. coli
T1 sequence (P98170 241-356): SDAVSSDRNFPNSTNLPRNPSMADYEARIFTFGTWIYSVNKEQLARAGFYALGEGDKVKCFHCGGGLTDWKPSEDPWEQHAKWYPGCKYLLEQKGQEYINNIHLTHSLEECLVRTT
The experiment in a line: XIAP BIR3 binding assay (DELFIA), displacement of SMAC peptide. The note with it: GST-fusion BIR3 domain (aa 241 to 356) 10 nM, SMAC peptide 10 nM; activity of the (S)-isomers. Put shortly:
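Each BIR3 domain (10 nM) incubated with biotinylated N-terminal SMAC peptide (10 nM) and compound for 1 h at room temp in Tris/NaCl buffer with BSA, DTT and Triton X-100. Captured on streptavidin plates; bound BIR3 detected by Eu-labelled anti-GST time-resolved fluorescence, giving IC50 values.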
In general, pIC50 refers to the IC50 on a negative log10 scale, so that one unit is a factor of ten. A lower pIC50 goes with a large IC50. `CC(N)C(=O)Nc1cccc(C#CC2=CCCCC2)n1` (centres unmarked) [Example 225, 2-amino-N-[6-[2-(cyclohexen-1-yl)ethynyl]pyridin-2-yl]propanamide] showed a pIC50 of 5.15.
Under `CC(N)C(=O)Nc1cc2ccccc2c(C#Cc2cncs2)n1` (centres unmarked) [Example 227, 2-amino-N-[1-[2-(1,3-thiazol-5-yl)ethynyl]isoquinolin-3-yl]-propanamide] stands 5.72.
`CC(N)C(=O)Nc1cccc(C#Cc2c(F)cccc2F)n1` (centres unmarked) [Example 230, 2-amino-N-[6-[2-(2,6-difluorophenyl)ethynyl]pyridin-2-yl]propanamide] showed a pIC50 of 5.62.
With `CC(N)C(=O)Nc1cccc(C#Cc2cc(Cl)cc(Cl)c2)n1` (centres unmarked) [Example 231, 2-amino-N-[6-[2-(3,5-dichlorophenyl)ethynyl]pyridin-2-yl]propanamide], the negative-log IC50 (pIC50) was 5.31.
As to `CC(N)C(=O)Nc1cccc(C#Cc2cc(F)cc(F)c2)n1` (centres unmarked) [Example 233, 2-amino-N-[6-[2-(3,5-difluorophenyl)ethynyl]pyridin-2-yl]propanamide], the pIC50 was 5.54.
`Cc1cc(C)cc(C#Cc2cccc(NC(=O)C(C)N)n2)c1` (centres unmarked) [Example 235, 2-amino-N-[6-[2-(3,5-dimethylphenyl)ethynyl]pyridin-2-yl]propanamide] had a pIC50 of 5.66.
Turning to `CC(N)C(=O)Nc1cccc(C#Cc2c(Cl)cccc2Cl)n1` (centres unmarked) [Example 236, 2-amino-N-[6-[2-(2,6-dichlorophenyl)ethynyl]pyridin-2-yl]propanamide], the pIC50 was 5.70.
Regarding `CC(N)C(=O)Nc1cccc(C#Cc2nccs2)n1` (centres unmarked) [Example 237, 2-amino-N-[6-[2-(1,3-thiazol-2-yl)ethynyl]pyridin-2-yl]propanainide], the negative logarithm of the IC50 (pIC50) is 5.23.
Under `CC(N)C(=O)Nc1cccc(C#Cc2cscn2)n1` (centres unmarked) [Example 238, 2-amino-N-[6-[2-(1,3-thiazol-4-yl)ethynyl]pyridin-2-yl]propanamide] stands 5.14.
Compound `CC(N)C(=O)Nc1cccc(C#Cc2cncs2)n1` (centres unmarked) [Example 239, 2-amino-N-[6-[2-(1,3-thiazol-5-yl)ethynyl]pyridin-2-yl]propanamide] gave a negative-log IC50 (pIC50) of 5.34.
Under `CC(N)C(=O)Nc1cccc(C#Cc2ccco2)n1` (centres unmarked) [Example 241, 2-amino-N-[6-[2-(furan-2-yl)ethynyl]pyridin-2-yl]propanamide] stands 5.49.
Under `CC(N)C(=O)Nc1cccc(C#Cc2ccc3ccccc3c2)n1` (centres unmarked) [Example 242, 2-amino-N-[6-(2-naphthalen-2-ylethynyl)pyridin-2-yl]propanamide] stands 5.37; under `CNC(C)C(=O)Nc1ccc(N(C)S(=O)(=O)c2ccccc2)c(C#Cc2ccccc2)n1` (centres unmarked) [Example 243, N-[5-[benzenesulfonyl(methyl)amino]-6-(2-phenylethynyl)pyridin-2-yl]-2-(methylamino)propanamide], 6.80; under `CNC(C)C(=O)Nc1ccc(N(C)C(=O)C2CCOCC2)c(C#Cc2ccccc2)n1` (centres unmarked) [Example 244, N-methyl-N-[6-[2-(methylamino)propanoylamino]-2-(2-phenylethynyl)pyridin-3-yl]oxane-4-carboxamide], 5.83.
Under `CNC(C)C(=O)Nc1ccc(NC(=O)C2CCCC2)c(C#Cc2ccccc2)n1` (centres unmarked) [Example 245, N-[6-[[2-(methylamino)-propanoyl]amino]-2-(2-phenylethynyl)pyridin-3-yl]-cyclopentanecarboxamide] stands 5.89; under `CNC(C)C(=O)Nc1ccc(NC(=O)C2CCOCC2)c(C#Cc2ccccc2)n1` (centres unmarked) [Example 246, N-[6-[[2-(methylamino)-propanoyl]amino]-2-(2-phenylethynyl)pyridin-3-yl]-oxane-4-carboxamide], 5.82.
The compound `CNC(C)C(=O)Nc1ccc(N(C)C(=O)c2ccccc2)c(C#Cc2ccccc2)n1` (centres unmarked) [Example 247, N-methyl-N-[6-[[2-(methyl-amino)propanoyl]amino]-2-(2-phenylethynyl)pyridin-3-yl]-benzamide] showed a negative-log IC50 (pIC50) of 6.13.
